The values below come from patent publication US20260373266A1, “PROTEIN DEGRADERS AND USES THEREOF” (KYMERA THERAPEUTICS, INC., priority 2022, published 2026).

T1 sequence (Q9Y4B6 1077-1390): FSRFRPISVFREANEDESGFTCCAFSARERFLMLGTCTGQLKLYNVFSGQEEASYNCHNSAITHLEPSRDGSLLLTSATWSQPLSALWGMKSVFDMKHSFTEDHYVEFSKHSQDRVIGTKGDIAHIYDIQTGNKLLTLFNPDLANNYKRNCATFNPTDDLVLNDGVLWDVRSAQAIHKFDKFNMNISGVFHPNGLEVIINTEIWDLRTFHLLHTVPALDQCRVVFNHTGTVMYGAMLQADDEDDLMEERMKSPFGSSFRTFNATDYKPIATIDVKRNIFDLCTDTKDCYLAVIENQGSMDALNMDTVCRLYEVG

This assay addresses T1, DCAF1 WD40 domain (residues 1077-1390) (Homo sapiens, UniProt Q9Y4B6).
T1 construct: DCAF1 WD40 domain (residues 1077-1390)
The assay can be described thus: DCAF1 binding assay by SPR (Biacore 8K+), DCAF1-3 KD. Particulars: 25 °C, read-out: DCAF1-3 SPR (KD). Background: Surface plasmon resonance follows binding to a sensor surface in real time, without labels.
As a reminder, the Kd is the constant that tells how readily two partners part at equilibrium. As for `Cc1c(N2CCOCC2)ccnc1N[C@@H]1CCCN(c2cccc(F)c2)C1` [I-516], the dissociation constant Kd lay within 10 to 100 µM.

On to `Cc1sc2c(c1C)C(c1ccc(Cl)cc1)=N[C@@H](CC(=O)NCCOCCOCCOCCOCCC1CCN(c3ccnc(N4CC[C@@H]5[C@H]4CCCN5c4cccc(F)c4)c3)CC1)c1nnc(C)n1-2` [I-890], for which the Kd was < 10 µM. For `NC(=O)C[C@H](NC(=O)c1cnn(Cc2cncs2)c1-c1ccccc1F)c1cccc(Cl)c1` [I-167] the value was > 200 µM; for `CS(=O)(=O)CCC(=O)N1CCC[C@@H](Nc2cc(N3CCOCC3)ccn2)C1` [I-767], > 200 µM; for `c1cc(N2CCC[C@@H](Nc3cc(N4CCOCC4)ncn3)C2)c2ccncc2c1` [I-394], > 200 µM. For `Fc1cccc(N2CCC[C@@H](Oc3cc(N4CCOCC4)ccn3)C2)c1` [I-81] the value was > 200 µM; for `Cc1cnc(N2CCOCC2)cc1N[C@@H]1CCCN(c2cccc(F)c2)C1` [I-404], > 200 µM; for `CCCCCCC[C@@H]1CCCN(c2ccnc(N3CC[C@H]4[C@@H]3CCCN4c3cccc(F)c3)c2)C1` [I-728], 10 to 100 µM. `CN(c1ccnc(N[C@@H]2CCCN(c3cccc(F)c3)C2)c1)C1CCCC1` [I-555]: the Kd lay in the range of 10 to 100 µM. For `NC(=O)C[C@H](NC(=O)c1cn[nH]c1-c1ccccc1F)c1ccc(O)cc1` [I-130] the value was > 200 µM; for `C[C@H]1CCCC[C@H]1c1[nH]ncc1C(=O)N[C@@H](CC(N)=O)c1cccc(Cl)c1` [I-723], < 10 µM. For `C[C@H]1CCCCN1c1ccnc(N[C@@H]2CCCN(c3cccc(F)c3)C2)c1` [I-569] the value was < 10 µM; for `NC(=O)C[C@H](NC(=O)c1cnc(N)cc1-c1ccccc1F)c1cccc(Cl)c1` [I-589], > 200 µM; for `CC(C(N)=O)[C@H](NC(=O)c1cn[nH]c1-c1ccccc1F)c1cccc(Cl)c1` (stereo partly drawn) [I-141], > 200 µM. In the case of `c1cnc2ccc(N3CCC[C@@H](Nc4cc(N5CCOCC5)ncn4)C3)cc2c1` [I-400], the dissociation constant Kd was > 200 µM. The value for `NC(=O)N1Cc2ccc(N3CCC[C@H]4[C@@H]3CCN4c3cc(N4CCCCC4)ccn3)cc2C1` [I-956] was < 10 µM; that for `Cc1sc2c(c1C)C(c1ccc(Cl)cc1)=N[C@@H](CC(=O)NCCOCCOCCOCCOCCCc1ccc(C(=O)c3[nH]cc(C(=O)N[C@@H](CC(=O)N4CCNCC4)c4cccc(Cl)c4)c3-c3c(F)ccc(F)c3C)cc1)c1nnc(C)n1-2` [I-913] was < 10 µM. For the compound `NC(=O)C[C@H](NC(=O)c1cn[nH]c1-c1ccc(F)cc1)c1cccc(Cl)c1` [I-116], the Kd was < 10 µM.

Consider `c1cc(N2CCOCC2)cc(N[C@@H]2CCCN(c3ccc(C4CC4)cc3)C2)n1` [I-507], for which the Kd was > 200 µM. For `C=CC(=O)N1CCC(N(C)c2ccnc(N[C@@H]3CCCN(c4cccc(F)c4)C3)c2)CC1` [I-460] the value was 10 to 100 µM. The value for `C[C@@H](NC(=O)c1cn[nH]c1-c1c(F)cccc1F)c1ncc[nH]1` [I-839] was > 200 µM. The value for `c1cnc2ccc(N3CCC[C@@H](Nc4nccc(N5CCOCC5)n4)C3)cc2c1` [I-56] was > 200 µM; that for `Fc1cccc(N2CCC[C@@H](Cc3cc(N4CCOCC4)ccn3)C2)c1` [I-87] was > 200 µM.

On to `CN(c1cccc(F)c1)C1CCCN(c2cc(N3CCCCC3)ccn2)C1` (stereo not drawn) [I-660], for which the Kd was > 200 µM. The value for `O=C(c1cc(N2CCCCC2)ccn1)[C@@H]1CCCN(c2cccc(F)c2)C1` [I-612] was > 200 µM; that for `OC[C@H]1C[C@@H](Nc2cc(N3CCCCC3)ccn2)CN(c2cccc(F)c2)C1` [I-936] was 10 to 100 µM; that for `NC(=O)C[C@H](NC(=O)c1cn[nH]c1-c1cccc(C(N)=O)c1)c1cccc(Cl)c1` [I-350] was 10 to 100 µM. With `Fc1cccc(N2CCC[C@H]3[C@@H]2CCCN3c2cc(N3CCCCC3)ccn2)c1` [I-720], the dissociation constant (Kd) is < 10 µM.

Take `Fc1cccc(N2CCCC(Nc3nccc(N4CCCCC4)n3)C2)c1` (stereo not drawn) [I-27]: the dissociation constant Kd lay within 100 to 200 µM.

Take `NC(=O)C[C@H](C(=O)Nc1cnn(Cc2ccccc2)c1-c1ccccc1F)c1cccc(Cl)c1` [I-153]: the Kd is > 200 µM.
